Reference: patent US10525044B2, “Treatment for chemotherapy-induced peripheral neuropathy” (priority 2013, dated 2020)
“Also recorded” adds a separate entry of the source.

Legend:
[1] = test system: mouse liver cancer cell line BNLT3; assay: MTS assay in BNLT3 cancer cells; type: cell-based; details: each agent alone, 3 days: MTX 100 μM, 5-FU 25 μM, CDDP 3.5 μM, PAN-811 10 μM
Procedure: (§1) Cancer Cell Culture. The mouse liver cancer cell line BNLT3 (gift of Dr. Jack Wands, Brown University) and the human lung cancer cell line H460 (ATCC) were seeded into 96-well plates at a density of 4,000 cells/well and cultured at 37° C., 5% CO2, in DMEM (11965, Gibco) supplemented with 10% fetal bovine serum, 20 mM HEPES, 1 mM sodium pyruvate, and […] gentamycin (all reagents came from Gibco).
(§2) Cell Insults and Treatments. Determination of concentration for each anticancer drug in our experiments was based on its reported concentration in human cerebral spinal fluid (CSF) in chemotherapy, literature report of its neurotoxicity in culture, and our preliminary in vitro experimental data. At 13 d.i.v., the neuronal cell cultures were insulted with 100 μM of MTX (M9929, Sigma), 25 μM of 5-FU (F6627, Sigma), or 3.5 μM of CDDP (sc-200896, Santa Cruz) for 3 days in absence or presence of PAN 811.Cl.H2O. For ROS examination, the neurons were insulted with both 100 μM of MTX and 25 μM of 5-FU by 15 d.i.v. PAN-811.Cl.H2O was added to cultures to final concentrations of 1.25, 2.5, 5, and 10 μM at the same time as addition of the anticancer drugs. For cancer cell lines, the cells were insulted by the second day of cell seeding with the same concentration of MTX, 5-FU, or CDDP as used in neuronal culture in the absence or presence of 10 μM PAN-811.Cl.H2O for another 3 days.
(§3) Quantitative Assays and Morphological Assessment. Cell membrane integrity and mitochondrial function of either neurons or cancer cells were measured with LDH and 3-(4,5-dimethylthiazol-2-yl)-5-(3-carboxymethoxyphenyl)-2-(4-sulfophenyl)-2H-tetrazolium [MTS] analyses, respectively. The latter has been used to quantify cell survival. For the LDH assay, a mixture of a 35 μL aliquot of culture supernatant and 17.5 μL of Mixed Substrate, Enzyme and Dye Solutions (Sigma) was incubated at room temperature (RT) for 30 minutes. For the MTS assay, 10 μL of MTS reagent (Promega) was added to a culture well containing neurons in 50 μL of medium. The preparations were incubated at 37° C. for 2 hours. The preparations for both assays were then spectrophotometrically measured at 490 nm using a 96-well plate reader (Mode 550, Bio-Rad). Neuronal cell death was morphologically determined based on the integrity of the cell soma and continuity of neuronal processes. The change in number of cancer cells was judged directly by cell density. Cells were photographed under an inverted phase contrast microscope (IX 70, Olympus) using 10× or 20× objective.
(§4) Data Analysis. Data were generated from 4-6 replicate wells, expressed as mean±standard deviation (SD), and statistically evaluated at a significance level of 1% with one factor ANOVA or Student's t-test by using software VASSARSTATS (http://vassarstats.net/) followed by the Tukey HSD test. Figure symbols are as follows: #, P<0.05, and ##, P<0.01, compared with control; *, P<0.05, and **, P<0.01, compared with the insulted group; §§, P<0.01, compared with PAN-811 treated group by Student's t-test.

[2] = test system: mixed cortical and striatal neurons; assay: MTS assay (cell viability) in neuronal cell culture; type: cell-based; details: MTX 100 μM, 5-FU 25 μM, CDDP 3.5 μM; for reduction of MTS reading / effect on MTS reading (in words): neurons in 12.5% AO; for effect on MTS reading (in words): FIG. 2(c); for change in MTS level: neurons in 25% AO, 3 days, data not shown
Procedure: (§5) Neuronal Cell Culture. Mixed cortical and striatal neurons fromembryonic day 17 male Sprague-Dawley rats (tissue obtained from NIH) were seeded into poly-D-lysine coated 96-well plates at density of 50,000 cells/well and initially cultured at 37° C., 5% CO2, in neurobasal medium (NB) with B27 supplement (Invitrogen) containing full strength of AOs to obtain highly enriched (95%) neurons. Since AOs, including vitamin E, vitamin E acetate, superoxide dismutase (SOD), catalase (CAT), and GSH, are additives to culture medium, reduction of AO concentration in culture medium provides an approach to determine the level of OS involvement in a neurotoxic process. In our study, the culture medium was replaced at a 50% ratio with NB plus B27 minus AOs twice at days 7 and 9 to set AO concentrations as 50% and 25%, respectively. At 16 days in vitro (d.i.v.), a fraction of the culture medium was harvested for lactate dehydrogenase (LDH) assay, and then AO concentration was reduced to 12.5% and cultured for a further 5 hours prior to ending the experiment.
as §2, §3, §4

[3] = test system: mixed cortical and striatal neurons; assay: Morphological assessment of neuronal cell death; type: cell-based, Sprague-Dawley rats; details: MTX 100 μM, 5-FU 25 μM, CDDP 3.5 μM; for visible cell damage: neurons in 25% AO, 3 days; for neuronal cell death / loss of neurons (morphology): AO reduced to 12.5% for 5 hours at 16 d.i.v.
Procedure: as §5, §2, §3

[4] = test system: human lung cancer cell line H460; assay: Cell density of H460 cells (phase contrast); type: cell-based; details: each agent alone, 3 days: MTX 100 μM, 5-FU 25 μM, CDDP 3.5 μM, PAN-811 10 μM
Procedure: as §1, §2, §3

[5] = test system: mixed cortical and striatal neurons; assay: LDH assay (cell membrane integrity) in neuronal cell culture; type: cell-based; details: MTX 100 μM, 5-FU 25 μM, CDDP 3.5 μM; for LDH increase in culture supernatant (cell membrane leakage): neurons in 25% AO; for LDH increase in culture supernatant (cell membrane leakage) / morphological changes, LDH release, or MTS reduction: 3 days; for morphological changes, LDH release, or MTS reduction: neurons in 100% or 50% AOs, data not shown; for increase in LDH reading: neurons, FIG. 2(b)
Procedure: as §5, §2, §3, §4

[6] = test system: mouse liver cancer cell line BNLT3; assay: Cell density of BNLT3 cells (phase contrast); type: cell-based; details: each agent alone, 3 days: MTX 100 μM, 5-FU 25 μM, CDDP 3.5 μM, PAN-811 10 μM
Procedure: as §1, §2, §3

[7] = test system: human lung cancer cell line H460; assay: MTS assay in H460 cancer cells; type: cell-based; details: each agent alone, 3 days: MTX 100 μM, 5-FU 25 μM, CDDP 3.5 μM, PAN-811 10 μM
Procedure: as §1, §2, §3, §4

[8] = test system: human lung cancer cell line H460; assay: LDH assay (membrane integrity) in H460 cancer cells; type: cell-based; details: each agent alone, 3 days: MTX 100 μM, 5-FU 25 μM, CDDP 3.5 μM, PAN-811 10 μM
Procedure: as §1
as §2, with “[…] […]” for “At 13 d.i.v., the neuronal cell cultures were insulted with 100 μM of MTX (M9929, Sigma), 25 μM of 5-FU (F6627, Sigma), or 3.5 μM of CDDP (sc-200896, Santa Cruz) for 3 days in absence or presence of PAN 811.Cl.H2O. For ROS examination, the neurons were insulted with both 100 μM of MTX and 25 μM of 5-FU by 15 d.i.v.”
as §3, §4

[9] = test system: TRPA1-dependent hypersensitivity; details: short-term systemic treatment before the cytotoxic drug (bortezomib or oxaliplatin); cited from earlier work
[10] = test system: oxaliplatin-induced behavioral alterations; details: in vivo; cited from earlier work

SMILES | reduction of MTS reading [1] [%] | reduction of MTS reading [2] [%] | effect on MTS reading (in words) [2] | change in MTS level [2] | visible cell damage [3] | neuronal cell death / loss of neurons (morphology) [3] | cell density [4] | LDH increase in culture supernatant (cell membrane leakage) [5] | morphological changes, LDH release, or MTS reduction [5] | increase in LDH reading [5] | cell density / cancer cell number [6] | reduction of MTS reading [7] [%] | increase in LDH reading in culture supernatant [8] [%] | prevention of hypersensitivity [9] | antineuropathic effect on oxaliplatin-induced behavioral alterations [10]
O=c1[nH]cc(F)c(=O)[nH]1 [5-FU, fluorouracil] | 84 | 27 | significant reduction in MTS readings | no change in MTS level was detectable | no cell damage was visible | extensive neuronal cell death; also recorded: robust loss of neurons | robustly decreased the cell density | significant LDH increase | neither MTX at 100 μM, 5-FU at 25 μM, nor CDDP at 3.5 μM caused morphological changes, LDH release, or MTS reduction | significant increases in LDH reading | significantly reduced the cell density | 57 | 124 |  | 
[NH2][Pt]([NH2])([Cl])[Cl] [CDDP, cisplatin] | 44 | 66 | significant reduction in MTS readings | no change in MTS level was detectable | no cell damage was visible | extensive neuronal cell death; also recorded: robust loss of neurons | greatly decreased the cell density | significant LDH increase | neither MTX at 100 μM, 5-FU at 25 μM, nor CDDP at 3.5 μM caused morphological changes, LDH release, or MTS reduction | significant increases in LDH reading | caused a decrease in the cell density | 22 | 71 |  | 
CC(C)c1ccc(NC(=O)Cn2cnc3c2c(=O)n(C)c(=O)n3C)cc1 [HC-030031] |  |  |  |  |  |  |  |  |  |  |  |  |  | completely prevent hypersensitivity | 
CN(Cc1cnc2nc(N)nc(N)c2n1)c1ccc(C(=O)N[C@@H](CCC(=O)O)C(=O)O)cc1 [MTX, methotrexate] | 85 |  | did not elicit significant MTS reduction; also recorded: did not significantly affect the MTS reading | no change in MTS level was detectable | no cell damage was visible | did not result in significant loss of cell number | robustly decreased the cell density | significant LDH increase | neither MTX at 100 μM, 5-FU at 25 μM, nor CDDP at 3.5 μM caused morphological changes, LDH release, or MTS reduction | significant increases in LDH reading | severely reduced the cancer cell number | 67 | 95 |  | 
O=C(O)CCCCC1CCSS1 (stereo not drawn) [α-lipoic acid] |  |  |  |  |  |  |  |  |  |  |  |  |  | completely prevent hypersensitivity | 
Cc1c(C)c2c(c(C)c1O)CC[C@@](C)(CCC[C@H](C)CCC[C@H](C)CCCC(C)C)O2 [α-tocopherol] |  |  |  |  |  |  |  |  |  |  |  |  |  |  | about 50%
